The source of these data is patent publication US11634396B2 (priority 2021, dated 2023).

By EC50 is commonly meant the concentration that produces a half-maximal response. As a reminder, the IC50 is the concentration that inhibits the measured activity by half.

Assay [1] concerns the target human dOR (Homo sapiens (Human), UniProt P41143). Briefly: cell-based. Particulars: dOR cAMP Agonist Assay EC50, CHO Tag-lite human dOR stable cell line; forskolin.
The target in assay [2] is human mOR (Homo sapiens (Human), UniProt P35372). Put plainly: cell-based.
Sequence of human mOR (P35372 whole entry): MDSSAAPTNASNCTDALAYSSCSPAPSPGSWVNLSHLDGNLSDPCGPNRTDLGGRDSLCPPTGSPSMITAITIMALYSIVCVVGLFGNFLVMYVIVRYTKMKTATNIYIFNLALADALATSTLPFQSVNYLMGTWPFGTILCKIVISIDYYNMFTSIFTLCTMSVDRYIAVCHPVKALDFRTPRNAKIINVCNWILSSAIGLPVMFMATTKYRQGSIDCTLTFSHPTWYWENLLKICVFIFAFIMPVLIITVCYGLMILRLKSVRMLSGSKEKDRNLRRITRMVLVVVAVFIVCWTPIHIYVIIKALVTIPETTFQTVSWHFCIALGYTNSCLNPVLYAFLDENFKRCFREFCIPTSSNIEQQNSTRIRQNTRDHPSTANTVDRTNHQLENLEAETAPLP
Where [3] appears, read: CHO Tag-lite human mOR stable cell line, forskolin 4 μM and DAMGO at EC90, read-out: mOR cAMP Antagonist Assay IC50.

Where two headings read alike, the source gives them in different places.

Sequence of human dOR (P41143 whole entry): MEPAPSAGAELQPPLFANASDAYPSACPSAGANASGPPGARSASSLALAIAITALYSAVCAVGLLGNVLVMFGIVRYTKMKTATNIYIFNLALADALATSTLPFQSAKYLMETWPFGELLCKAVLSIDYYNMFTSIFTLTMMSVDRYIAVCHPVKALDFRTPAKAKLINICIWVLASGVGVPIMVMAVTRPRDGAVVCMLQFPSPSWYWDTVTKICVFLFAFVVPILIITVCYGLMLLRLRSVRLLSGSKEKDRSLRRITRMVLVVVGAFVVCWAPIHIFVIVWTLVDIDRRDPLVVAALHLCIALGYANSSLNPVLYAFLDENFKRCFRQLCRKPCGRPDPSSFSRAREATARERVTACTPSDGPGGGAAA

Turning to `Cc1cc(C(N)=O)cc(C)c1C[C@@H](CNC(=O)C[C@H](CC(C)C)c1ccccc1)N(C)C` [Compound 9, 4-[(2S)-2-(dimethylamino)-3-[(3S)-5-methyl-3-phenylhexanamido]propyl]-3,5-dimethylbenzamide], in assay [1], the EC50 was above 3000 nM. The IC50 in assay [2] was below 300 nM.

On to `Cc1cc(C(N)=O)cc(C)c1C[C@@H](CNC(=O)C[C@H](c1ccccc1)C(C)(C)C)N(C)C` [Compound 13, 4-[(2S)-3-[(3S)-4,4-dimethyl-3-phenylpentanamido]-2-(dimethylamino)propyl]-3,5-dimethylbenzamide], for which the EC50 in assay [1] was above 3000 nM. Moreover, in assay [2], the IC50 was below 300 nM.

Take `CC(C)[C@@H](CC(=O)NC[C@H](Cc1ccc(C(N)=O)cc1Cl)N(C)C)c1ccccc1` [Compound 40, 3-chloro-4-((S)-2-(dimethylamino)-3-((R)-4-methyl-3-phenylpentanamido)propyl)benzamide]: the EC50 in assay [1] was below 300 nM. The 50% inhibitory concentration (IC50) in assay [2] was above 3000 nM.

For the compound `CC(C)[C@@H](CC(=O)NC[C@H](Cc1ccc(C(N)=O)cc1)N(C)C)c1ccccc1` [Compound 92, 4-((S)-2-(dimethylamino)-3-((R)-4-methyl-3-phenylpentanamido)propyl)benzamide], in assay [1], the EC50 is below 300 nM. In addition, the IC50 in assay [2] is below 300 nM.

As for `CN(C)[C@H](CNC(=O)C[C@@H](c1ccccc1)C(C)(C)C)Cc1ccc(C(N)=O)cc1` [Compound 93, 4-[(2S)-3-[(3R)-4,4-dimethyl-3-phenylpentanamido]-2-(dimethylamino)propyl]benzamide], the EC50 in assay [1] is below 300 nM. Besides, in assay [2], the IC50 is below 300 nM.

Turning to `CC(C)[C@H](CC(=O)NC[C@H](Cc1ccc(C(N)=O)cc1)N(C)C)c1ccccc1` [Compound 94, 4-[(2S)-2-(dimethylamino)-3-[(3S)-4-methyl-3-phenylpentanamido]propyl]benzamide], the EC50 in assay [1] was below 300 nM. Also, the IC50 in assay [2] was below 300 nM.

Turning to `CN(C)[C@H](CNC(=O)C[C@@H](c1ccccc1)C(C)(C)C)Cc1ccc(C(N)=O)cc1` [Compound 95, 4-((S)-3-((R)-4,4-dimethyl-3-phenylpentanamido)-2-(dimethylamino)propyl)benzamide], the EC50 in assay [1] is above 3000 nM.

As to `CN(C)[C@H](CNC(=O)C[C@H](c1ccccc1)C(C)(C)C)Cc1ccc(C(=O)NCC(F)(F)F)c(F)c1` [Compound 101, 4-((S)-3-((S)-4,4-dimethyl-3-phenylpentanamido)-2-(dimethylamino)propyl)-2-fluoro-N-(2,2,2-trifluoroethyl)benzamide], the 50% effective concentration (EC50) in assay [1] was in the range of 300 to 3000 nM. Moreover, in assay [2] (setting [3]), the half-inhibitory concentration (IC50) is below 300 nM.

Consider `Cc1ccc([C@@H](CC(=O)NC[C@H](Cc2ccc(O)cc2)N(C)C)C2(C(F)(F)F)CC2)s1` [Compound 293, (S)-N-((S)-2-(dimethylamino)-3-(4-hydroxyphenyl)propyl)-3-(5-methylthiophen-2-yl)-3-(1-(trifluoromethyl)cyclopropyl)propanamide], for which the IC50 in assay [2] is below 300 nM.

Take `CN(C)[C@H](CNC(=O)C[C@H](c1ccsc1)C1(C(F)(F)F)CC1)Cc1ccc(O)cc1` [Compound 294, (S)-N-((S)-2-(dimethylamino)-3-(4-hydroxyphenyl)propyl)-3-(thiophen-3-yl)-3-(1-(trifluoromethyl)cyclopropyl)propanamide]: the half-maximal inhibitory concentration (IC50) in assay [2] was below 300 nM.

On to `Cc1ncc([C@@H](CC(=O)NC[C@H](Cc2ccc(O)cc2)N(C)C)C2(C(F)(F)F)CC2)s1` [Compound 295, (S)-N-((S)-2-(dimethylamino)-3-(4-hydroxyphenyl)propyl)-3-(2-methylthiazol-5-yl)-3-(1-(trifluoromethyl)cyclopropyl)propanamide], for which the IC50 in assay [2] was below 300 nM.

In the case of `CN(C)[C@H](CNC(=O)C[C@H](c1cncs1)C1(C(F)(F)F)CC1)Cc1ccc(O)cc1` [Compound 296, (S)-N-((S)-2-(dimethylamino)-3-(4-hydroxyphenyl)propyl)-3-(thiazol-5-yl)-3-(1-(trifluoromethyl)cyclopropyl)propanamide], in assay [2], the IC50 was below 300 nM.

Take `CC(C)C[C@H](CC(=O)NC[C@H](Cc1ccc(O)cc1)N(C)C)c1cccnc1` [Compound 297, (R)-N-((S)-2-(dimethylamino)-3-(4-hydroxyphenyl)propyl)-5-methyl-3-(pyridin-3-yl)hexanamide]: the IC50 in assay [2] is below 300 nM.

For `CN(C)[C@H](CNC(=O)C[C@H](CC1CC1)c1ccncc1)Cc1ccc(O)cc1` [Compound 298, (S)-4-cyclopropyl-N-((S)-2-(dimethylamino)-3-(4-hydroxyphenyl)propyl)-3-(pyridin-4-yl)butanamide], in assay [2], the IC50 was below 300 nM.

`Cc1cc([C@@H](CC(=O)NC[C@H](Cc2ccc(O)cc2)N(C)C)C2(C(F)(F)F)CC2)ccn1` [Compound 299, (R)-N-((S)-2-(dimethylamino)-3-(4-hydroxyphenyl)propyl)-3-(2-methylpyridin-4-yl)-3-(1-(trifluoromethyl)cyclopropyl) propanamide]: in assay [2], the half-maximal inhibitory concentration (IC50) is below 300 nM.

On to `Cc1cncc([C@@H](CC(=O)NC[C@H](Cc2ccc(O)cc2)N(C)C)C2(C(F)(F)F)CC2)c1` [Compound 300, (R)-N-((S)-2-(dimethylamino)-3-(4-hydroxyphenyl)propyl)-3-(5-methylpyridin-3-yl)-3-(1-(trifluoromethyl)cyclopropyl)propanamide], for which, in assay [2], the IC50 is below 300 nM.

Consider `Cc1ccc([C@@H](CC(=O)NC[C@H](Cc2ccc(O)cc2)N(C)C)C2(C(F)(F)F)CC2)cn1` [Compound 302, (R)-N-((S)-2-(dimethylamino)-3-(4-hydroxyphenyl)propyl)-3-(6-methylpyridin-3-yl)-3-(1-(trifluoromethyl)cyclopropyl) propanamide], for which, in assay [2], the IC50 was below 300 nM.

With `CN(C)[C@H](CNC(=O)C[C@H](c1cccnc1)C1(C)CC1)Cc1ccc(O)cc1` [Compound 303, (S)-N-((S)-2-(dimethylamino)-3-(4-hydroxyphenyl)propyl)-3-(1-methylcyclopropyl)-3-(pyridin-3-yl)propanamide], in assay [2], the IC50 was below 300 nM.

As for `CC(C)[C@H](CC(=O)NC[C@H](Cc1ccc(O)cc1)N(C)C)c1cccnc1` [Compound 304, (S)-N-((S)-2-(dimethylamino)-3-(4-hydroxyphenyl)propyl)-4-methyl-3-(pyridin-3-yl)pentanamide], the IC50 in assay [2] was below 300 nM.

On to `CN(C)[C@H](CNC(=O)C[C@H](c1cccnc1)C1(C(F)(F)F)CC1)Cc1ccc(O)cc1` [Compound 306, (R)-N-((S)-2-(dimethylamino)-3-(4-hydroxyphenyl)propyl)-3-(pyridin-3-yl)-3-(1-(trifluoromethyl)cyclopropyl)propanamide], for which, in assay [2], the IC50 is below 300 nM.

Take `CN(C)[C@H](CNC(=O)C[C@@H](CC1CC1)c1cncnc1)Cc1ccc(O)cc1` [Compound 307, (R)-4-cyclopropyl-N-((S)-2-(dimethylamino)-3-(4-hydroxyphenyl)propyl)-3-(pyrimidin-5-yl)butanamide]: the IC50 in assay [2] is below 300 nM.

Regarding `CN(C)[C@H](CNC(=O)C[C@H](c1cccnc1)C1CC1)Cc1ccc(O)cc1` [Compound 308, (S)-3-cyclopropyl-N-((S)-2-(dimethylamino)-3-(4-hydroxyphenyl)propyl)-3-(pyridin-3-yl)propanamide], the concentration for half-maximal inhibition (IC50) in assay [2] (setting [3]) was 300 to 3000 nM.

Take `CN(C)[C@H](CNC(=O)CC(c1ccncc1)C1(C(F)(F)F)CC1)Cc1ccc(O)cc1` (stereo partly drawn) [Compound 309, N-((S)-2-(dimethylamino)-3-(4-hydroxyphenyl)propyl)-3-(pyridin-4-yl)-3-(1-(trifluoromethyl)cyclopropyl)propanamide]: the IC50 in assay [2] was below 300 nM.

`CN(C)[C@H](CNC(=O)C[C@@H](CC1CC1)c1cccnc1)Cc1ccc(O)cc1` [Compound 310, (R)-4-cyclopropyl-N-((S)-2-(dimethylamino)-3-(4-hydroxyphenyl)propyl)-3-(pyridin-3-yl)butanamide]: in assay [2], the half-inhibitory concentration (IC50) was below 300 nM.

Regarding `Cc1ncc([C@@H](CC(=O)NC[C@H](Cc2ccc(O)cc2)N(C)C)C2CC2)cn1` [Compound 311, (S)-3-cyclopropyl-N-((S)-2-(dimethylamino)-3-(4-hydroxyphenyl)propyl)-3-(2-methylpyrimidin-5-yl)propanamide], the IC50 in assay [2] (setting [3]) lay within 300 to 3000 nM.

Consider `Cc1ncc([C@@H](CC(=O)NC[C@H](Cc2ccc(O)cc2)N(C)C)C2(C(F)(F)F)CC2)cn1` [Compound 312, (R)-N-((S)-2-(dimethylamino)-3-(4-hydroxyphenyl)propyl)-3-(2-methylpyrimidin-5-yl)-3-(1-(trifluoromethyl)cyclopropyl)propanamide], for which the IC50 in assay [2] is below 300 nM.

Turning to `CN(C)[C@H](CNC(=O)CC(c1ncccn1)C1(C(F)(F)F)CC1)Cc1ccc(O)cc1` (stereo partly drawn) [Compound 313, N-((S)-2-(dimethylamino)-3-(4-hydroxyphenyl)propyl)-3-(pyrimidin-2-yl)-3-(1-(trifluoromethyl)cyclopropyl)propanamide], in assay [2], the IC50 was below 300 nM.

Take `CN(C)[C@H](CNC(=O)CC(c1ccc(C(F)(F)F)nc1)C1(C(F)(F)F)CC1)Cc1ccc(O)cc1` (stereo partly drawn) [Compound 314, N-((S)-2-(dimethylamino)-3-(4-hydroxyphenyl)propyl)-3-(1-(trifluoromethyl)cyclopropyl)-3-(6-(trifluoromethyl)pyridin-3-yl)propanamide]: in assay [2], the IC50 was below 300 nM.

As to `Cc1cc([C@@H](CC(=O)NC[C@H](Cc2ccc(O)cc2)N(C)C)C2(C(F)(F)F)CC2)cs1` [Compound 322, (S)-N-((S)-2-(dimethylamino)-3-(4-hydroxyphenyl)propyl)-3-(5-methylthiophen-3-yl)-3-(1-(trifluoromethyl)cyclopropyl)propanamide], in assay [2], the IC50 is below 300 nM.

With `Cc1cnc([C@@H](CC(=O)NC[C@H](Cc2ccc(-c3nnc[nH]3)cc2)N(C)C)C2(C(F)(F)F)CC2)s1` [Compound 325, (S)-N-((S)-3-(4-(4H-1,2,4-triazol-3-yl)phenyl)-2-(dimethylamino)propyl)-3-(5-methylthiazol-2-yl)-3-(1-(trifluoromethyl)cyclopropyl) propanamide], the IC50 in assay [2] (setting [3]) was 300 to 3000 nM.
